Assays:
[1] = biological target: T1, Bone morphogenetic protein 1 (Homo sapiens, UniProt P13497); assay: Inhibition of C-terminal FLAG-6x-His epitope tagged and N-terminal human RAGE signal sequence tagged human BMP1 (23 to 721 amino acids) expressed in CHO-E1 cells pre-incubated for 10 mins before promyostatin peptide substrate addition and measured after 60 mins using 0.5 nM BMP1 by FRET based assay; format: cell-based
T1 sequence (P13497 whole entry): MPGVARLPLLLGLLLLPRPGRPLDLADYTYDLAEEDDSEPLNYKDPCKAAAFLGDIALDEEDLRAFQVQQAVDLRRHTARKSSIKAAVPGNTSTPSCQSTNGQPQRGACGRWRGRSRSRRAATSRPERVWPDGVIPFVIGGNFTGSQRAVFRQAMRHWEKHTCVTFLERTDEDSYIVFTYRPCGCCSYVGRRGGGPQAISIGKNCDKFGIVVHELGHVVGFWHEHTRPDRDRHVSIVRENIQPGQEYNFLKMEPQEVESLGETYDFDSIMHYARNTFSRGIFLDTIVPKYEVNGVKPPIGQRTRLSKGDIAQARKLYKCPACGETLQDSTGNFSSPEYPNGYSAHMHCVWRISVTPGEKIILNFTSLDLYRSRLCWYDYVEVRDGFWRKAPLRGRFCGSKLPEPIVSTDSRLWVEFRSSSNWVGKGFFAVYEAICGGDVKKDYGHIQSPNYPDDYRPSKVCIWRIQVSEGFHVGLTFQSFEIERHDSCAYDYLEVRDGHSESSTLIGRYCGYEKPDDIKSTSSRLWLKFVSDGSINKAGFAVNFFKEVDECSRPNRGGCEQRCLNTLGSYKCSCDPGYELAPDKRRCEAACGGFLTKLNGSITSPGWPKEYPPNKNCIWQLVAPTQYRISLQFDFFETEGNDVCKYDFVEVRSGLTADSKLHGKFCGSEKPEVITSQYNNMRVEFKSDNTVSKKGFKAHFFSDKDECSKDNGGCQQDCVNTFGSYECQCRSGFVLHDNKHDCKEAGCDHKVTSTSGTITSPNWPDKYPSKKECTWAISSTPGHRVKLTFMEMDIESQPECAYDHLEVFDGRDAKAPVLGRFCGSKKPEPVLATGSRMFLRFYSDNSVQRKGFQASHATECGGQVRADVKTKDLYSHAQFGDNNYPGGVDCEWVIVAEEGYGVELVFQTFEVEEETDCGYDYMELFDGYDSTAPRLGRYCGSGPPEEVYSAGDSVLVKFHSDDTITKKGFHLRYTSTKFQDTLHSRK

[2] = biological target: T1, Bone morphogenetic protein 1; assay: Inhibition of C-terminal FLAG-6x-His epitope tagged and N-terminal human RAGE signal sequence tagged human BMP1 (23 to 721 amino acids) expressed in CHO-E1 cells pre-incubated for 10 mins before promyostatin peptide substrate addition and measured after 30 mins using 50 nM BMP1 by FRET based assay; format: cell-based
Tolloid-like protein 1 = Tolloid-like protein 1 (Homo sapiens, UniProt O43897, I156V/N221S/V284A); assay: Inhibition of recombinant human TLL1 I156V/N221S/V284A mutant expressed in CHOE1A cells pre-incubated for 10 mins before promyostatin peptide substrate addition and measured after 60 mins by FRET based assay; format: cell-based
Chain of Tolloid-like protein 1 (O43897 148-1013 I156V/N221S/V284A limits assumed): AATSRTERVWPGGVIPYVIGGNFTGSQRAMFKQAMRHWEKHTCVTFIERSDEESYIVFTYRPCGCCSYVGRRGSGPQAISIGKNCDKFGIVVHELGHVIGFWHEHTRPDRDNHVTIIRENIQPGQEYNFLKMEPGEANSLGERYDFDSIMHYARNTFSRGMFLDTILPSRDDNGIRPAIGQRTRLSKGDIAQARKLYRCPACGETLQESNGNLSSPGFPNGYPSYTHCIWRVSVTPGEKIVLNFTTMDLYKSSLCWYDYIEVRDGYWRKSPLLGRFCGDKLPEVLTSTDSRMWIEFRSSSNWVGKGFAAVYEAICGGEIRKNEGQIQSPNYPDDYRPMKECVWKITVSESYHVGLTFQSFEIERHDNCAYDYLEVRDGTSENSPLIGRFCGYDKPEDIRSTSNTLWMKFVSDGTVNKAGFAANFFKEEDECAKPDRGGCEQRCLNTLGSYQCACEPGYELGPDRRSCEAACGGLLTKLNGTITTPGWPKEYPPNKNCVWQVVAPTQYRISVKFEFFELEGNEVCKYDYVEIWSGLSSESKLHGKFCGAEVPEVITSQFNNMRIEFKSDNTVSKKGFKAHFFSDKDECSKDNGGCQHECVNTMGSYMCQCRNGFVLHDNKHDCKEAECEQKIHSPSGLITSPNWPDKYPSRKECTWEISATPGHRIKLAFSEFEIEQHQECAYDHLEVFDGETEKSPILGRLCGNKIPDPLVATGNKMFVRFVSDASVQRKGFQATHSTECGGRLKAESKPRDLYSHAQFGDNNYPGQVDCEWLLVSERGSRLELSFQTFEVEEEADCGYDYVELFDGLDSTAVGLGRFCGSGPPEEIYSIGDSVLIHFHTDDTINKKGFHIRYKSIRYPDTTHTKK

Tolloid-like protein 2 = biological target: T2, Tolloid-like protein 2 (Homo sapiens, UniProt Q9Y6L7); assay: Inhibition of C-terminal Avi-6x-His epitope tagged and N-terminal human RAGE signal sequence tagged recombinant human TLL2 (26 to 1015 amino acids) expressed in CHOE1A cells incubated for 60 mins with promyostatin peptide substrate by FRET based assay; format: cell-based
T2 sequence (Q9Y6L7 whole entry): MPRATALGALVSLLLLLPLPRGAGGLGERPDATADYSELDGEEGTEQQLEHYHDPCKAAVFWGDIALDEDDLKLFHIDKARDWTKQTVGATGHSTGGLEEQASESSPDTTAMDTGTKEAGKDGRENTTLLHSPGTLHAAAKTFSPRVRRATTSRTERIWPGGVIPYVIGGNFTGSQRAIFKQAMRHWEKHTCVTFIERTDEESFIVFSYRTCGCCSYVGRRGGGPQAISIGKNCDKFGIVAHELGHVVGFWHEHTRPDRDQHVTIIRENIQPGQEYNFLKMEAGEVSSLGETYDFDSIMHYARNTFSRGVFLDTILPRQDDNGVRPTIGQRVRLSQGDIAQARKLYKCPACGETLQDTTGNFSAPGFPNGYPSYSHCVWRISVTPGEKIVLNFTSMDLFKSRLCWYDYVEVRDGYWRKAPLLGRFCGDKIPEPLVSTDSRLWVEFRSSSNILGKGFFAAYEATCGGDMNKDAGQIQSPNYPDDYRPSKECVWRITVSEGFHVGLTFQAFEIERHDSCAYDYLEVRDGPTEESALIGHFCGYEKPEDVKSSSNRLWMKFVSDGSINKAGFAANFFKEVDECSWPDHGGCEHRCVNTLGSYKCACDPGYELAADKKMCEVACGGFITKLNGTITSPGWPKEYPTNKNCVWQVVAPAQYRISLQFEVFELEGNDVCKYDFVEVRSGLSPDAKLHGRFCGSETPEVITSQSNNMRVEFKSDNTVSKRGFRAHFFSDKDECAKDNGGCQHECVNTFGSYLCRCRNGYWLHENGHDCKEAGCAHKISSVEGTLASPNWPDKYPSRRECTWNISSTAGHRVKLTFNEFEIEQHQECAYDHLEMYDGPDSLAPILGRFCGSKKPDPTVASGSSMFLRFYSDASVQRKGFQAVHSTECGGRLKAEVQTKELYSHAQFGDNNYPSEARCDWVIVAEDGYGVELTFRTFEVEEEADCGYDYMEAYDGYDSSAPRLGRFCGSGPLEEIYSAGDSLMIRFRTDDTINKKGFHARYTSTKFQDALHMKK

[3] = Reduction in PICP levels in human cardiac fibroblasts incubated for 24 to 48 hrs by ELISA; format: functional
Procedure, shortened: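 Human cardiac fibroblasts no older than passage 6 were seeded at 10,000 to 15,000 cells per well in 96-well plates and, one day later, exposed for 24 to 48 hr at 37° C to treatment in ficoll crowding EMEM with 100 μM ascorbic acid and less than 0.3% DMSO. IC50 was determined in GraphPad Prism from a log(inhibitor)-response fit of procollagen I C-terminal propeptide levels in the medium, measured by Quidel ELISA and expressed relative to untreated controls.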

| SMILES | IC50 [1] [µM] | IC50 [2] [µM] | IC50 (Tolloid-like protein 1) [µM] | IC50 (Tolloid-like protein 2) [µM] | IC50 [3] [µM] |
| --- | --- | --- | --- | --- | --- |
| CCCCC[C@@H](C(=O)NCNC(=O)c1ccc(-c2ccc(C(=O)N[C@H](CC(=O)O)C(=O)O)cc2)o1)[C@@H](CC)N(O)C=O | < 0.126 | < 0.2 | < 0.398 | < 0.794 | < 3.98 |
| CCCCC[C@@H](C(=O)NCNC(=O)c1ccc(-c2ccc(C(=O)O)c(CC(=O)O)c2)o1)[C@@H](CC)N(O)C=O | < 0.126 | < 0.2 | < 0.398 | < 0.794 | < 3.98 |
| CCCCC[C@H](CN(O)C=O)C(=O)NCNC(=O)c1ccc(-c2cccc(SCC)c2)o1 | < 0.126 | < 0.2 | < 0.398 | < 0.794 | < 3.98 |
| CCCCC[C@@H](C(=O)NCNC(=O)c1ccc(-c2ccc(C(=O)N[C@@H](CC(=O)O)C(=O)O)c(C)c2)o1)[C@@H](CC)N(O)C=O | < 0.126 | < 0.2 | < 0.398 | < 0.794 | < 3.98 |
| CCCCC[C@@H](C(=O)NCNC(=O)c1ccc(-c2cc(OCC(N)=O)cc(C(=O)O)c2)o1)[C@@H](CC)N(O)C=O | < 0.126 | < 0.2 | < 0.398 | < 0.794 | < 3.98 |
| CCCCC[C@@H](C(=O)NCNC(=O)c1ccc(-c2ccc(C(=O)N[C@@H](CCC(=O)O)C(=O)O)cc2)o1)[C@@H](CC)N(O)C=O | < 0.126 | < 0.2 | < 0.398 | < 0.794 | < 3.98 |
| CCCCC[C@@H](C(=O)NCNC(=O)c1ccc(-c2cc(O)cc(P(=O)(O)O)c2)o1)[C@@H](CC)N(O)C=O | < 0.126 | < 0.2 | < 0.398 | < 0.794 | < 3.98 |
| CCCCC[C@@H](C(=O)NCNC(=O)c1ccc(-c2cc(OCC(=O)O)cc(C(=O)N[C@@H](CC(=O)O)C(=O)O)c2)o1)[C@@H](CC)N(O)C=O | < 0.126 | < 0.2 | < 0.398 | < 0.794 | < 3.98 |
| CCCCC[C@H](CN(O)C=O)C(=O)NCNC(=O)c1ccc(-c2cccc([N+](=O)[O-])c2)o1 | < 0.126 | < 0.2 | < 0.398 | < 0.794 | < 3.98 |
| CCCCC[C@H](CN(O)C=O)C(=O)NCNC(=O)c1ccc(-c2cccc(OCC(F)F)c2)o1 | < 0.126 | < 0.2 | < 0.398 | < 0.794 | < 3.98 |
| CCCCC[C@@H](C(=O)NCNC(=O)c1ccc(-c2ccc(C(=O)O)c(C(=O)O)c2)o1)[C@@H](CC)N(O)C=O | < 0.126 | < 0.2 | < 0.398 | < 0.794 | < 3.98 |
| CCCCC[C@@H](C(=O)NCNC(=O)c1ccc(-c2ccc(C(=O)N[C@@H](CCC(=O)O)C(=O)O)c(OCC)c2)o1)[C@@H](CC)N(O)C=O | < 0.126 | < 0.2 | < 0.398 | < 0.794 | < 3.98 |
| CCCCC[C@@H](C(=O)NCNC(=O)c1ccc(-c2cc(CN(C)CC(=O)O)cc(OCC)c2)o1)[C@@H](CC)N(O)C=O | < 0.126 | < 0.2 | < 0.398 | < 0.794 | < 3.98 |
| CCCCC[C@@H](C(=O)NCNC(=O)c1ccc(-c2cc(CNCP(=O)(O)O)cc(OCC)c2)o1)[C@@H](CC)N(O)C=O | < 0.126 | < 0.2 | < 0.398 | < 0.794 | < 3.98 |
| CCCCC[C@@H](C(=O)NCNC(=O)C1CCC(c2cc(OCC)cc(P(=O)(O)O)c2)O1)[C@@H](CC)N(O)C=O (stereo not given in full) | < 0.126 | < 0.2 | < 0.398 | < 0.794 | < 3.98 |
| CCCCC[C@@H](C(=O)NCNC(=O)c1ccc(-c2cc(OCC)cc(C(=O)NCP(=O)(O)O)c2)o1)[C@@H](CC)N(O)C=O | < 0.126 | < 0.2 | < 0.398 | < 0.794 | < 3.98 |
| CCOc1cc(C(=O)O)c(O)c(-c2ccc(C(=O)NCNC(=O)[C@H](CCc3ccccc3)[C@@H](CC)N(O)C=O)o2)c1 | < 0.126 | < 0.2 | < 0.398 | < 0.794 | < 3.98 |
| CCCCC[C@H](CN(O)C=O)C(=O)NCNC(=O)c1ccc(-c2cccc(P(=O)(O)O)c2)o1 | < 0.126 | < 0.2 | < 0.398 | < 0.794 | < 3.98 |
| CCCCC[C@@H](C(=O)NCNC(=O)c1ccc(-c2ccc(C(=O)N[C@@H](CC(=O)O)C(=O)O)cc2)o1)[C@@H](CC)N(O)C=O | < 0.126 | < 0.2 | < 0.398 | < 0.794 | < 3.98 |
| CCOc1cc(-c2ccc(C(=O)NCNC(=O)[C@H](CCc3ccc4ccccc4c3)[C@@H](CC)N(O)C=O)o2)ccc1C(=O)N[C@@H](CC(=O)O)C(=O)O | < 0.126 | < 0.2 | < 0.398 | < 0.794 | < 3.98 |
| CC[C@H]([C@@H](CCc1ccc(F)cc1F)C(=O)NCNC(=O)c1ccc(-c2cc(OCC(=O)O)cc(C(=O)O)c2O)o1)N(O)C=O | < 0.126 | < 0.2 | < 0.398 | < 0.794 | < 3.98 |
| CCCCC[C@H](CN(O)C=O)C(=O)NCNC(=O)c1ccc(-c2cccc(SC)c2)o1 | < 0.126 | < 0.2 | < 0.398 | < 0.794 | < 3.98 |
| CCCCC[C@@H](C(=O)NCNC(=O)c1ccc(-c2ccc(C(=O)N(CC(=O)O)CC(=O)O)cc2)o1)[C@@H](CC)N(O)C=O | < 0.126 | < 0.2 | < 0.398 | < 0.794 | < 3.98 |
| CCCCC[C@@H](C(=O)NCNC(=O)c1ccc(-c2cc(OCC)cc(P(=O)(O)OC)c2)o1)[C@@H](CC)N(O)C=O | < 0.126 | < 0.2 | < 0.398 | < 0.794 | < 3.98 |
| CCCCC[C@H](CN(O)C=O)C(=O)NCNC(=O)c1ccc(-c2ccc3cnn(C)c3c2)o1 | < 0.126 | < 0.2 | < 0.398 | < 0.794 | < 3.98 |
